# “Also recorded” adds a separate entry of the source.
# Columns and labels:
# [1] = test system: prostate cancer cell line PC-3; experiment: MTT assay, human prostate cancer cells; format: cell-based; details: concentrations in the range of 10^−7-10^−5 M or higher, FIGS. 2, 16
# Excerpt: (§1) The anti-cancer activity of some of the compounds described herein have been tested in one type of such in vitro assay, as described in the examples herein, using a microculture assay with 3-(4,5-dimethylthiazol-2-yl)-2,5-diphenyltetrazolium bromide (“MTT”). This assay has an advantage over in vivo assay in that results are obtained within a week as opposed to several months. The assay can be carried out in 96-well microtiter plates. The MTT assay is based on the production of a dark blue formazan product by dehydrogenase in the mitochondria of live tumor cells after exposure to drug for 6 days [M. C. Alley, D. A. Scudiero, A. Monks, M. L. Hursey, M. J. Czerwinski, D. L. Fine, B. J. Abbout, J. G. Mayo, R. H. Shoemaker and M. R. Boyd, Cancer Res., 48, 589, 1988]. Thus, only live cells are stained and can be measured at 595 nm. Anti-cancer activity can be reported as percent of the tumor cell growth in the presence of compound at a defined dose compared to control/vehicle treated tumor cells. The results of some such screening assays are given in Examples 162a and 162b, and in FIGS. 2, 3, and 15-18.
# (§2) The following human cancer cell lines were used to detect anti-cancer activity in the compounds of the invention.
# The prostate cancer cell line PC-3 was used to detect […]
# (§3) Cell lines were purchased from American Type Culture Collection (ATCC).
# (§4) The cancer cell cultures were grown as recommended by the ATTC manuals. A549 cells and BX-PC-3 were grown in DME Dulbecco's modified Eagle's medium containing 4500 mg/L glucose; 4 mM L-glutamine; 10 U/ml Pen-G; 10 mcg/ml […] and 10% fetal calf serum (FCS). PC-3 and MDA-MB468 cells were grown in RPMI medium 1640 containing 2 mM L-glutamine; 10 U/ml Pen-G; 10 mcg/ml Streptomycin and 10% FCS. Cells were kept at 6% CO2 and 37° C. Cells were seeded on day zero in 96-well format tissue culture plates at suitable densities the day before starting treatment, in the media indicated above.
# (§5) On day one, the compounds of the invention were added to the culture media of growing cells, containing 10% FCS. The cell media contained the compounds of the invention at one of six concentrations: […], 5×10^−8, 1×10^−7, 5×10^−7, 1×10^−6, and 1×10^−5M. 0.1% DMSO was used as vehicle control, and never exceeded 0.1% final concentration. On day four the media was removed and replaced with fresh media containing the compounds of the invention and FCS.
# (§6) The assay is based on the cleavage of the yellow tetrazolium salt MTT to purple formazan crystals by dehydrogenase activity in active mitochondria. This conversion only occurs in living cells with intact/functional mitochondria.
# (§7) On day five 10 μl of 5 mg/ml MTT dye are added to each well containing a cell culture. Cells are incubated for additional 4 hours at 6% CO2 and 37° C. Reaction is then stopped by adding 100 μl/well of a solubilization solution consisting of 10% Sodium Dodecyl Sulfate (SDS) and 10 mM HCl On day 6 the formazan crystals formed are solubilized and the resulting colored solution is quantified using a scanning multiwell spectrophotometer at a wavelength of 595 nm.
# [2] = test system: non-small-cell lung cancer cell line A549; experiment: MTT assay, human non-small-cell lung cancer cells; format: cell-based; details: concentrations in the range of 10^−7-10^−5 M or higher, FIGS. 3, 15
# Excerpt: as §1, §2
# The non-small-cell lung cancer cell line A549 was used to detect anti-lung cancer activity
# as §3, §4, §5, §6, §7
# [3] = test system: pancreatic cancer cell line BX-PC-3; experiment: MTT assay, human pancreatic cancer cells; format: cell-based; details: concentrations in the range of 10^−7-10^−5 M or higher, FIGS. 3, 18
# Excerpt: as §1, §2
# The pancreatic cancer cell line BX-PC-3 was used to detect anti-pancreatic cancer activity.
# as §3, §4, §5, §6, §7
# [4] = target: T1, recombinant human enzyme Cdc25A (Homo sapiens, UniProt P30304); experiment: Cdc25A phosphatase assay (OMFP substrate), inhibition of Cdc25A; format: biochemical; details: FIG. 1; inhibition calculated as a percentage of the solvent control
# T1 construct: purchased Upstate Biotechnology (Lake Placid, N.Y.)
# T1 sequence (P30304 1-524): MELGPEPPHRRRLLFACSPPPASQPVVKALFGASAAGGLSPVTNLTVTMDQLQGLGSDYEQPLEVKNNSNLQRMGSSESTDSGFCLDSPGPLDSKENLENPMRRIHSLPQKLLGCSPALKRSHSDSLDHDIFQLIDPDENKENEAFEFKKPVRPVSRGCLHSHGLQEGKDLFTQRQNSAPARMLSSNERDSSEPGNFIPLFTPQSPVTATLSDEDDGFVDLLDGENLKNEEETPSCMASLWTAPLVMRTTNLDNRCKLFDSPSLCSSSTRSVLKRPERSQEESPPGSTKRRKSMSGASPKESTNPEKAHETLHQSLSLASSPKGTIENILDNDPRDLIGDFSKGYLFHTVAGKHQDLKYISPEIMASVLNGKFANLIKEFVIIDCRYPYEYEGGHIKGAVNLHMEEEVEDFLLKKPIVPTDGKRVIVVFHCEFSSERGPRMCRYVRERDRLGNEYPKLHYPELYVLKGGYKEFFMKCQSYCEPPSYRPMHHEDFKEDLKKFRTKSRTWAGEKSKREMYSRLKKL
# Description: Therefore, one method of […] screening of the compounds for anti-cancer activity is to test the activity of a particular compound for the ability to inhibit Cdc 25-type phosphatases. The results of one such test are shown in Example 161 below, and FIG. 1.
# The phosphatase assay was performed in a 96-well microtiter plate using recombinant human enzyme Cdc25A purchased from Upstate Biotechnology (Lake Placid, N.Y.). Stock solutions of the test compounds were prepared in DMSO. Five μl of suitable dilutions of the compounds were added to the assay. The final volume of the assay was 100 μl. Twenty units of Cdc25A were pre-incubated with the test compounds at 37° C. for 10 min in the reaction mixture containing 100 mM Tris-HCl, pH 8.2, 40 mM NaCl, 1 mM DTT and 20% glycerol. The reaction was initiated by addition of the enzyme substrate […] (OMFP; Sigma, St. Louis, Mo.) at a final concentration of 40 μM and incubated at room temperature for 1 hour. This substrate allows fluorometric determination of enzyme activity. OMFP is readily metabolized to the fluorescent O-methylfluorescein by the enzyme Cdc25A, thus the absorbance of each reaction sample was determined at 477 nm using a plate reader (SpectraMax 340, Molecular Devices, Sunnyvale, Calif.). […] Inhibition of Cdc25A activity by test compounds was calculated as a percentage of the solvent control.
# [5] = test system: breast cancer cell line MDA-MB468; experiment: MTT assay, human breast cancer cells; format: cell-based; details: concentrations in the range of 10^−7-10^−5 M or higher, FIGS. 2, 17
# Excerpt: as §1, §2
# The breast cancer cell line MDA-MB468 served to detect anti-breast cancer activity.
# as §3, §4, §5, §6, §7
structure (smiles),measurement,setting,value
"O=C1N=C(N2CCCCC2)S/C1=C\c1cccc(-c2ccc(O)c(C34CC5CC(CC(C5)C3)C4)c2)c1 [Compound 3, 5-[3-(3-Adamantan-1-yl-4-hydroxy-phenyl)benzylidene]-2-piperidin-1-yl-thiazol-4-one]",anticancer cell activity / killing of prostate cancer cells,[1],kill significant percentages of the cells; also recorded: strong anticancer cell activity
same,anticancer cell activity / killing of non-small-cell lung cancer cells,[2],kill significant percentages of the cells; also recorded: strong anticancer all activity
same,anticancer cell activity / killing of pancreatic cancer cells,[3],kill significant percentages of the cells; also recorded: strong anticancer all activity
same,selective inhibition of Cdc25 as compared to the dual specificity phosphatase MKP-1,[4],selective inhibition of Cdc25
same,anticancer cell activity / killing of breast cancer cells,[5],kill significant percentages of the cells; also recorded: strong anticancer cell activity
same,melting point,,311 to 312 °C
